# Like-named read-outs stand apart in the source and are kept apart here.
# Key:
# [1] = Stability of analytes in rat plasma QC samples under storage conditions; format: physicochemical; details: n = 6; for Stability during 24 h at 4°C, RE: post-treatment storage in autosampler; for −80°C for 30 days, RE / Three freeze–thaw cycles, RE: rat plasma; for −80°C for 30 days, RE: long-term; for Three freeze–thaw cycles, RE: −80°C to room temperature
# Method in brief: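 QC samples at low, medium and high levels (n=6) were tested after 24 h in the autosampler at 4 °C, after three freeze–thaw cycles from −80 °C to room temperature, and after 30 days at −80 °C. Concentrations were read from daily calibration curves. Stability was accepted when RE and RSD were within ±15% of nominal.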
# [2] = Pharmacokinetic study in rats after intravenous administration of cinobufacini injection (UPLC-MS/MS of plasma); format: in vivo, rat
# Description: Male Sprague–Dawley rats (weighing 200–220 g) of SPF grade were offered by Sippr/BK laboratory Animal, Corp., Ltd. (Shanghai, China) and fed in the Laboratory Animal Center of the Shanghai University of Traditional Chinese Medicine. All the rats were kept under environmentally controlled conditions with constant temperature (22–24°C) and humidity (60–65%). The animal experiment program in the present research was approved by the Animal Committee of the Shanghai University of Traditional Chinese Medicine (PZSHUTCM210618012).
# An Agilent 1290 liquid chromatographic system includes a G4220A quaternary pump, a G1326C column incubator, a G4226A automatic sampler, and a G1330B degasser. The column temperature was set to 35°C. A measure of 5 µL of samples were separated in an Agilent SB-C18 column (2.1 mm ×50 mm, 1.8 μm) and eluted at 0.3 ml/min, followed by gradient elution with water (0.1% V/V formic acid) (A) and acetonitrile (B) (0–1 min, 20%–20% B; 1–3.5 min, 20%–80% B; 4–4.1 min, 80%-20% B; 4.1–6 min, 20% B). The total run time was 6 minutes.
# An Agilent 1290 Infinity series UPLC system was combined with an Agilent 6460 series triple quadrupole mass spectrometer (Agilent Technologies, Santa Clara, CA, United States) to quantify all 13 analytes in an ESI-positive ionization mode. Quantitative analysis was performed in an MRM mode. The mass spectrum conditions were as follows: capillary voltage, 4000V; drying gas (N2), gas flow rate: 10 L/min; sprayer, 30 psi; gas temperature 350°C; The delta EMV (+) 200 V; collision gas (N2); dwell time, 25 ms. Agilent’s MassHunter Workstation software was used for data collection, peak area calculation, and quantitative analysis.
# A measure of 50 µL of the plasma sample was mixed with 10 µL of the internal standard solution (345 ng/ml) in a 1.5-ml centrifuge tube and vortexed for 5 min. The samples were extracted by 500 µL of ethyl acetate for 5 min and centrifuged at 4°C for 10 min (18000 rpm). All the supernatants were collected into another 1.5-ml centrifuge tube, dried under a gentle stream of nitrogen at 37°C, and then added with 50 µL of 80% methanol for resolution. The resolution samples were centrifuged at 4°C for 10 min (18000 rpm), and 5 µL supernatant was extracted and injected for analysis.
# Twenty-four male Sprague–Dawley rats (weigh 200–220 g) were divided into four groups with six rats in each group randomly, including three capsule groups at three different doses and one injection group. In the instructions for cinobufacini capsule and injection, the clinical dosage for adults is 2 g per 70 kg orally and 20 ml per 70 kg intravenously, converting to rat doses of 180 mg/kg and 1.8 ml/kg, respectively.
# In the pre-experiments, we compared cinobufacini capsule of 180 mg/kg (one-time clinical dose) and 900 mg/kg (five times of clinical dose) and Cinobufacini injection of 1.8 ml/kg, but concentrations of some compounds in plasma were too low and difficult to be quantified. […] The experimental rats were led to fast the night and were free to get access to water for 12 h before the pharmacokinetic study. After administration, blood samples (approximately 150 μL) of rats were collected via retro-orbital sinus into heparinized centrifuge tubes at 0.05, 0.083, 0.25, 0.5, 0.75, 1, 2, 4, 6, 8, and 10 h. After centrifugation at 5,000 rpm for 10 min, the plasma was transferred to 1.5-ml polypropylene tubes and stored at −80°C until UPLC-MS/MS analysis.
# GraphPad Prism software (version 8.0.2) was used to draw the mean plasma concentration–time curves of all analytes. The pharmacokinetic parameters were calculated by DAS 3.2.8 software. Meanwhile, the pharmacokinetic data on rats were presented as mean ± standard deviation (SD). Differences of pharmacokinetic parameters between groups were analyzed by the t-test using SPSS software (version 26.0). Differences were considered significant statistically when the p-values were <0.05 and very significant statistically when the p-values were <0.01.
# [3] = Pharmacokinetic study in rats after oral administration of cinobufacini capsule (UPLC-MS/MS of plasma); format: in vivo, rat; details: male, Sprague-Dawley, in vivo, rat plasma, mean ± SD, n = 6; for CL/F: read-out: CLz/F (converted); for MRT last: read-out: MRT0-t; for MRT inf: read-out: MRT0-∞; for half-life: read-out: T1/2z (converted); for Vd/F: read-out: Vz/F
# Method in brief: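 Male SD rats (200–220 g), fasted 12 h, six per group; cinobufacini capsule given orally at three doses or injection intravenously. Retro-orbital plasma sampled 0.05–10 h, extracted with ethyl acetate plus internal standard, quantified by UPLC-MS/MS (ESI+, MRM); parameters calculated by non-compartmental-style software as mean ± SD.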
# [4] = high QC level (249.58–250.28 ng/ml)
# [5] = medium QC level (49.92–50.06 ng/ml)
# [6] = oral cinobufacini capsule 0.9 g/kg (low)
# [7] = oral cinobufacini capsule 1.8 g/kg (medium)
# [8] = oral cinobufacini capsule 3.6 g/kg (high)
compound,measurement,setting,value
"C[C@]12CC[C@H](O)C[C@H]1CC[C@@H]1[C@@H]2[C@H](O)C(=O)[C@]2(C)[C@@H](c3ccc(=O)oc3)CC[C@]12O [ABG, arenobufagin]","Stability during 24 h at 4°C, RE",[1]; [4],−4.1%
same,"Stability during 24 h at 4°C, RE",[1]; low QC level (4.99–5.00 ng/ml),7.4%
same,"Stability during 24 h at 4°C, RE",[1]; [5],−5.3%
same,"−80°C for 30 days, RE",[1]; [4],2.3%
same,"−80°C for 30 days, RE",[1]; low QC level (4.99–5.00 ng/ml),7.1%
same,"−80°C for 30 days, RE",[1]; [5],8.3%
same,"Three freeze–thaw cycles, RE",[1]; [4],0.7%
same,"Three freeze–thaw cycles, RE",[1]; low QC level (4.99–5.00 ng/ml),2.5%
same,"Three freeze–thaw cycles, RE",[1]; [5],3.3%
same,concentrations in most rat plasma samples relative to LLOQ,"[2]; after intravenous administration of cinobufacini injection, pharmacokinetic parameters could not be calculated",far below the LLOQs
same,detection in rat plasma,"[2]; cinobufacini injection group, intravenous",could be detected
same,AUC(0-inf),[3]; [6],15.5 ± 4.73 ng·h/mL
same,AUC(0-t),[3]; [6],15.5 ± 4.73 ng·h/mL
same,Cmax,[3]; [6],13.8 ± 6.4 ng/mL
same,Tmax,[3]; [6],27 ± 16.2 min
same,CL/F,[3]; [6],109 mL/min/kg
same,MRT last,[3]; [6],1.44 ± 0.58 h
same,MRT inf,[3]; [6],1.47 ± 0.6 h
same,half-life,[3]; [6],49.2 ± 39.6 min
same,Vd/F,[3]; [6],8.01 ± 5.68 L/kg
same,AUC(0-inf),[3]; [7],45.9 ± 13.1 ng·h/mL
same,AUC(0-t),[3]; [7],44.1 ± 10.6 ng·h/mL
same,Cmax,[3]; [7],36.7 ± 13.1 ng/mL
same,Tmax,[3]; [7],19.2 ± 7.2 min
same,CL/F,[3]; [7],71.2 mL/min/kg
same,MRT last,[3]; [7],1.49 ± 1.03 h
same,MRT inf,[3]; [7],1.74 ± 1.29 h
same,half-life,[3]; [7],38.4 ± 9.6 min
same,Vd/F,[3]; [7],4.2 ± 1.25 L/kg
same,AUC(0-inf),[3]; [8],87.6 ± 27.8 ng·h/mL
same,AUC(0-t),[3]; [8],87.3 ± 27.4 ng·h/mL
same,Cmax,[3]; [8],77.9 ± 24.2 ng/mL
same,Tmax,[3]; [8],19.2 ± 7.2 min
same,CL/F,[3]; [8],77.5 mL/min/kg
same,MRT last,[3]; [8],1.2 ± 0.26 h
same,MRT inf,[3]; [8],1.23 ± 0.31 h
same,half-life,[3]; [8],53.4 ± 38.4 min
same,Vd/F,[3]; [8],5.66 ± 3.45 L/kg

# — PMC9343874, “Comparative Pharmacokinetics of Cinobufacini Capsule and Injection by UPLC-MS/MS” (Frontiers in Pharmacology, 2022)
